Legend:
[1] = test system: Saos2 (p53-null) and U20S (wt p53); assay: Western analysis of survivin after doxorubicin in osteosarcoma lines; assay type: cell-based, human; conditions: Saos2 (p53-null) versus U20S (wt p53), doxorubicin treatment
Description: MCF-7 cells were maintained in RPMI-1640 supplemented with 10% fetal bovine serum and 100 units/ml of penicillin and streptomycin. The human melanoma cell line CaCl, and the derivative clone expressing the HPV E6 gene, were cultured as described (Ahn et al., Oncogene). The human osteosarcoma cell lines Saos-2 and U2-OS (kindly provided by Peter Adams, Fox Chase Cancer Center), the murine p21 knock-out fibroblasts (kindly provided by James Sherley, MIT) and the human lung adenocarcinoma cell line H1299 were cultured in DMEM supplemented with 10% fetal bovine serum and 100 units/ml of penicillin and streptomycin. […] For treatment with ultra-violet light, cells were irradiated with 0–10 J/m2 (as noted) of UV-C with a Spectroline X series ultraviolet lamp, and output was monitored with a traceable UV light meter (Fisher Scientific). For drug treatment, cells were treated with 0.5ug/ml adriamycin (doxorubicin, Sigma), or dilution vehicle alone, for twenty-four hours. p53 induction was monitored by western analysis of 100 ug protein as described (Murphy et al., Genes & Devel. 10:2971–2980, 1996), using 0.1ug/ml DO-1 (Ab-6, Calbiochem) or 421 (Ab-1, Calbiochem.
Western analysis was performed essentially as described (Murphy et al., 1999). […] Protein concentrations were determined using the Bio-Rad Dc Protein Assay (Bio-Rad). […]

[2] = test system: H1299 human lung adenocarcinoma; assay: Northern analysis of stathmin mRNA in p53-null cells; assay type: cell-based; conditions: H1299, null for p53
MCF-7 cells = assay: Immunoprecipitation-western analysis of p53 and p53-mSin3a complexes; assay type: cell-based, human
Description: Sub-confluent cultures of MCF 7 and A2780 cells were treated with 100 nM trichostatin A (TSA, Sigma)for 2 hours, followed by incubation with 0.5 ug/ml adriamycin (doxorubicin, Sigma) for the indicated timepoints. Va15 cells grown at 39 degrees were treated with 100 nM TSA for two hours, followed by temperature shift to 32 degrees for 12 hours. p53 induction was monitored by western analysis of 100 ug protein as described (Murphy et al., Genes & Devel. 10:2971–2980, 1996), using 0.1ug/ml DO-1 (Ab-6, Calbiochem) or 421 (Ab-1, Calbiochem). MDM2 induction was monitored using the monoclonal antibody 2A10, kindly provided by Arnold Levine (Rockefeller University). For UV treatments, cells were irradiated with 4 J/m2 of UV-C with a Spectroline X series ultraviolet lamp, and output was monitored with a traceable UV light meter (Fisher Scientific). For ALLN treatment, MCF-7 cells were treated with 50 uM ALLN (calpain I inhibitor, Sigma) made in DMSO (dimethyl sulfoxide, Sigma) or with DMSO alone for 2 hours prior to harvesting.
Sub-confluent cultures of cells were harvested and lysed in NP-40 buffer supplemented with protease inhibitors (1 mM PMSF, 10 ug/ml pepstatin A, 10 ug/ml aprotinin, and 5ug/ml leupeptin). Protein concentrations were determined by the method of Bradford (BioRad). Equal ug amounts of protein (between 2.0 and 3.0 mg) were immunoprecipitated with 1 ug of each antibody, except for Va15 immunoprecipitations, which used 1000 ug protein, as described (Murphy et al., Genes & Devel. 10:2971–2980, 1996). For p300, antibody N15 (Santa Cruz Biotechnology) and AB-1 (Calbiochem) yielded similar results. Each IP was washed twice in NP-40 buffer (Wu, et al., Genes & Devel. 7:1126–1132, 1993), followed by 2 washes in RIPA buffer (50 mM Tris pH 7.4/150 mM NaCl/1% Triton X 100/0.1% SDSI 1% Na deoxycholate). Immunoprecipitations were run on 7.5–10% SDS-PAGE gels and transferred overnight onto Immuno-Blot PVDF membrane (BioRad). […]
These complexes persisted under stringent washing conditions (RIPA buffer washes, see Materials and Methods), and were not present using control antisera (rabbit IgG, lane 1). […] We next analyzed the p53-mSin3a interaction following post-translational stabilization of p53 mediated by DNA damaging agents. […]
We next analyzed the time-course of the p53-mSin3a interaction following exposure of cells to the DNA damaging agent adriamycin (doxorubicin). Both p53-mSin3a and p53 p300 complexes were monitored by IP-western analysis in a time course following adriamycin treatment of MCF-7 cells. As a control, p53 was immunoprecipitated using polyclonal antisera generated against full-length p53 (Santa Cruz Biotechnology). p53 levels were also assessed at each time point by western analyses (data not shown). […]

## COc1cccc2c1C(=O)c1c(O)c3c(c(O)c1C2=O)C[C@@](O)(C(=O)CO)C[C@@H]3O[C@H]1C[C@H](N)[C@H](O)[C@H](C)O1 [adriamycin, doxorubicin]
[1]
  survivin protein levels: decreased survivin protein levels only in cells with wt p53 (U20S)
[2]
  effect on stathmin levels: neither TSA nor adriamycin had any effect on stathmin levels
MCF-7 cells; MCF-7, adriamycin, four and eight hours of treatment
  total p53 protein: significant increase in total p53 protein
MCF-7 cells; MCF-7 treated with doxorubicin
  amount of p53 in mSin3a complexes, increase: approximately five-fold greater

From patent US7053194B2, “Compositions and methods for p53-mediated repression of gene expression” (Fox Chase Cancer Center, priority 1999, dated 2006)
